Reference: PMC6522510 (Nature Communications, 2019)
Read-outs that look alike come from different tables or passages of the source.

Experiments:
MOLM-13 [1] = test: Secondary dose-response HTS, Cell Titer Glo; assay type: cell-based, human; conditions: MOLM-13
MV4-11 [2] = test: Secondary dose-response HTS, Cell Titer Glo; assay type: cell-based, human; conditions: MV4-11
CHRF288-11 [3] = test: Secondary dose-response HTS, Cell Titer Glo; assay type: cell-based, human
CMK [4] = test: Secondary dose-response HTS, Cell Titer Glo; assay type: cell-based, human; conditions: CMK
CMS [5] = test: Secondary dose-response HTS, Cell Titer Glo; assay type: cell-based, human
ML2 = test: Secondary dose-response HTS, Cell Titer Glo; assay type: cell-based, human; conditions: secondary high-throughput screen, ML-2; for EC50: read-out: average effective concentration, ML-2
U937 [6] = test: Secondary dose-response HTS, Cell Titer Glo; assay type: cell-based, human
MOLM-13 [7] = test: cells; design: species or system AML cell lines (8); Secondary HTS, 10-point dose-response in triplicate, Cell Titer Glo viability, four-parameter fit EC50; conditions: Homo sapiens, MOLM-13, 72 h, read-out: MOLM-13
MV4-11 [8] = test: cells; design: species or system AML cell lines (8); Secondary HTS, 10-point dose-response in triplicate, Cell Titer Glo viability, four-parameter fit EC50; conditions: Homo sapiens, MV4-11, 72 h, read-out: MV4-11
CMK [9] = test: cells; design: species or system AML cell lines (8); Secondary HTS, 10-point dose-response in triplicate, Cell Titer Glo viability, four-parameter fit EC50; conditions: Homo sapiens, CMK, 72 h, read-out: CMK
CMS [10] = test: cells; design: species or system AML cell lines (8); Secondary HTS, 10-point dose-response in triplicate, Cell Titer Glo viability, four-parameter fit EC50; conditions: 72 h, read-out: CMS
M07e = test: cells; design: species or system AML cell lines (8); Secondary HTS, 10-point dose-response in triplicate, Cell Titer Glo viability, four-parameter fit EC50; conditions: M-07e, 72 h, read-out: M07e
U937 [11] = test: cells; design: species or system AML cell lines (8); Secondary HTS, 10-point dose-response in triplicate, Cell Titer Glo viability, four-parameter fit EC50; conditions: Homo sapiens, U-937, 72 h, read-out: U937
CHRF288-11 [12] = test: cells; design: species or system AML cell lines (8); Secondary HTS, 10-point dose-response in triplicate, Cell Titer Glo viability, four-parameter fit EC50; conditions: 72 h, read-out: CHRF288-11
[13] = secondary high-throughput screen, read-out: average effective concentration, MOLM-13
[14] = secondary high-throughput screen
[15] = secondary high-throughput screen, CHRF288-11, read-out: average effective concentration, CHRF288-11
[16] = secondary high-throughput screen, read-out: average effective concentration, CMK
[17] = secondary high-throughput screen, CMS, read-out: average effective concentration, CMS
[18] = secondary high-throughput screen, U937, read-out: average effective concentration, U937
[19] = secondary high-throughput screen, CHRF288-11
[20] = secondary high-throughput screen, CMS
[21] = secondary high-throughput screen, U937
[22] = Homo sapiens, U-937, secondary high-throughput screen, U937, read-out: average effective concentration, U937
[23] = Homo sapiens, HTS, secondary high-throughput screen, CHRF288-11, read-out: average effective concentration, CHRF288-11
[24] = Homo sapiens, secondary high-throughput screen, read-out: average effective concentration, MOLM-13
[25] = Homo sapiens, read-out: average effective concentration, CMK

With `C=C1C(=O)O[C@@H]2C[C@@]3(C)CCCC(=C)[C@@H]3C[C@H]12` [ISOHELENIN] the EC50 (MOLM-13 [1]; [13]) was 5900 nM, the “average effective concentration, MV4-11” value (MV4-11 [2]; [14]) was “Inactive” and the EC50 (CHRF288-11 [3]; [15]) was 6700 nM. The EC50 (CMK [4]; [16]) was 5200 nM, the EC50 (CMS [5]; [17]) was 5400 nM and the EC50 (ML2) was 6600 nM. It also gave an EC50 (U937 [6]; [18]) of 8200 nM.
For `Cc1ccc(C(=O)Nc2ccc(Oc3cc4cnn(C)c4cc3-c3cn[nH]c3)c(F)c2)c(=O)n1-c1ccc(F)cc1` [LY2801653], the “average effective concentration, MV4-11” value (MV4-11 [2]; [14]) was “Inactive”, the “average effective concentration, CHRF288-11” value (CHRF288-11 [3]; [19]) was “Inactive” and the “average effective concentration, CMK” value (CMK [4]; [14]) was “Inactive”. The “average effective concentration, CMS” value (CMS [5]; [20]) was “Inactive”, the “average effective concentration, ML-2” value (ML2) was “Inactive” and the “average effective concentration, U937” value (U937 [6]; [21]) was “Inactive”.
`CC1CS(=O)(=O)CCN1/N=C/c1ccc([N+](=O)[O-])o1` (centres unmarked) [NIFURTIMOX] gave an EC50 (CMK [4]; Homo sapiens, secondary high-throughput screen, read-out: average effective concentration, CMK) of 2300 nM, an EC50 (CMS [5]; Homo sapiens, HTS, secondary high-throughput screen, CMS, read-out: average effective concentration, CMS) of 5000 nM and an EC50 (ML2; Homo sapiens) of 8500 nM. It also gave an EC50 (U937 [6]; [22]) of 2700 nM.
With `O=C(c1cc(Cc2n[nH]c(=O)c3ccccc23)ccc1F)N1CCN(C(=O)C2CC2)CC1` [OLAPARIB] the EC50 (CHRF288-11 [3]; [23]) was over 10000 nM, the EC50 (ML2; Homo sapiens) was over 10000 nM and the EC50 (MOLM-13 [7]) was over 10000 nM. It also gave an EC50 (MV4-11 [8]) of over 10000 nM, an EC50 (CMK [9]) of over 10000 nM and an EC50 (CMS [10]) of over 10000 nM. It also gave an EC50 (M07e) of over 10000 nM and an EC50 (U937 [11]) of over 10000 nM.
`Cn1cc(CNCC2CCN(c3ncc(C(=O)NO)cn3)CC2)c2ccccc21` [Quisinostat, reference compound] showed an EC50 (MOLM-13 [1]; Homo sapiens, secondary HTS, 72 h, average of triplicate, read-out: EC50 MOLM-13) of 10 nM, an EC50 (MOLM-13 [1]; [24]) of 11 nM and an EC50 (MV4-11 [2]; Homo sapiens, secondary HTS, 72 h, average of triplicate, read-out: EC50 MV4-11) of 10 nM. For the same compound, the EC50 (MV4-11 [2]; Homo sapiens, secondary high-throughput screen, read-out: average effective concentration, MV4-11) was 6 nM, the EC50 (CHRF288-11 [3]; [23]) was 9 nM and the EC50 (CHRF288-11 [3]; Homo sapiens, secondary HTS, 72 h, average of triplicate, read-out: EC50 CHRF288-11) was 10 nM. For the same compound, the EC50 (CMK [4]; Homo sapiens, 72 h, read-out: EC50 CMK) was 20 nM, the EC50 (CMK [4]; [25]) was 18 nM and the EC50 (CMS [5]; Homo sapiens, HTS, 72 h, read-out: EC50 CMS) was 1 nM. For the same compound, the EC50 (U937 [6]; Homo sapiens, U-937, secondary HTS, 72 h, average of triplicate, read-out: EC50 U937) was 10 nM.
`O=C1c2c(O)ccc(O)c2C(=O)c2c(NCCNCCO)ccc(NCCNCCO)c21` [SJ000285321, MITOXANTHRONE] showed an EC50 (MOLM-13 [7]) of 8.1 nM, an EC50 (CHRF288-11 [12]) of 24 nM and an EC50 (CMK [9]) of 43 nM. The EC50 (CMS [10]) was 85 nM, the EC50 (M07e) was 33 nM and the EC50 (U937 [11]) was 26 nM.
With `O=C(NCC1(c2nc(-c3ccccc3)cs2)CCOCC1)c1cccc(-c2noc(C(F)(F)F)n2)c1` [TMP269] the “average effective concentration, MOLM-13” value (MOLM-13 [1]; [14]) was “Inactive”, the “average effective concentration, MV4-11” value (MV4-11 [2]; [14]) was “Inactive” and the “average effective concentration, CHRF288-11” value (CHRF288-11 [3]; [19]) was “Inactive”. The “average effective concentration, CMK” value (CMK [4]; [14]) was “Inactive”, the “average effective concentration, CMS” value (CMS [5]; [20]) was “Inactive” and the “average effective concentration, ML-2” value (ML2) was “Inactive”. The “average effective concentration, U937” value (U937 [6]; [21]) was “Inactive”.
`Oc1nc(-c2ccc(C(F)(F)F)cc2)nc2c1CSCC2` [XAV939] was tested, and the EC50 (ML2; Homo sapiens) was 2800 nM, the EC50 (MOLM-13 [7]) was over 10000 nM and the EC50 (MV4-11 [8]) was over 10000 nM. For the same compound, the EC50 (CHRF288-11 [12]) was over 10000 nM, the EC50 (CMK [9]) was over 10000 nM and the EC50 (CMS [10]) was over 10000 nM. The EC50 (M07e) was over 10000 nM and the EC50 (U937 [11]) was over 10000 nM.
`C/C1=C\CC(C)(C)/C=C/C(=O)/C(C)=C/CC1` [ZERUMBONE] gave an EC50 (MOLM-13 [1]; [24]) of 10000 nM, an EC50 (CHRF288-11 [3]; [23]) of 8600 nM and an EC50 (CMK [4]; [25]) of 7200 nM. The EC50 (CMS [5]; Homo sapiens, HTS, read-out: average effective concentration, CMS) was 7300 nM, the EC50 (ML2; Homo sapiens) was 6900 nM and the EC50 (U937 [6]; [22]) was 10000 nM. For the same compound, the EC50 (MV4-11 [8]) was over 10000 nM and the EC50 (M07e) was over 10000 nM.
BLEOMYCIN was tested, and the EC50 (MOLM-13 [1]; [13]) was 6900 nM, the “average effective concentration, MV4-11” value (MV4-11 [2]; [14]) was “Inactive” and the “average effective concentration, CMK” value (CMK [4]; [14]) was “Inactive”. For the same compound, the “average effective concentration, CMS” value (CMS [5]; [20]) was “Inactive” and the “average effective concentration, U937” value (U937 [6]; [21]) was “Inactive”.
In the case of I-BET151, the EC50 (MOLM-13 [1]; [13]) is reported as 650 nM, the “average effective concentration, MV4-11” value (MV4-11 [2]; [14]) is reported as “Inactive” and the EC50 (CHRF288-11 [3]; [15]) is reported as 5100 nM. For the same compound, the “average effective concentration, CMK” value (CMK [4]; [14]) was “Inactive”, the EC50 (CMS [5]; [17]) was 2100 nM and the EC50 (ML2) was 2700 nM. For the same compound, the EC50 (U937 [6]; [18]) was 3200 nM.
MITHRAMYCIN A showed an EC50 (MOLM-13 [1]; [13]) of 140 nM, an EC50 (MV4-11 [2]; secondary high-throughput screen, read-out: average effective concentration, MV4-11) of 53 nM and an EC50 (CHRF288-11 [3]; [15]) of 160 nM. For the same compound, the EC50 (CMK [4]; [16]) was 260 nM, the EC50 (CMS [5]; [17]) was 180 nM and the EC50 (ML2) was 230 nM. The EC50 (U937 [6]; [18]) was 240 nM.
